Reference: patent publication US20260248799A1, “COMBINATIONS OF RETINALDEHYDE DEHYDROGENASE 1 (RALDH1) INHIBITORS AND IMMUNOSTIMULATORS AND METHODS USING SAME” (The Trustees of the University of Pennsylvania, priority 2023, published 2026)

Tests used:
Huh7 tumors = Huh7 tumors in NU/J mice; format: in vivo, mouse
Description: FIGS. 26A-26H: Raldh1-INH suppresses HCC growth by altering macrophage functions. FIG. 26A: Huh7 tumor-bearing NU/J mice were treated with C86 (i.p, 10 mg/kg) every day starting when tumor size was approximately 50 mm^3. Tumor volume was measured every 2 days. […] Three or more independent experiments were performed with at least three replicates per experimental group. Unpaired t test, two-tailed. FIG. 26B: AldeRed assay at endpoint on Huh7 tumor treated as described in FIG. 26A. […] Three or more independent experiments were performed with at least three replicates per experimental group. Unpaired t test, two-tailed. FIG. 26C: Huh7 tumor-bearing nude mice were treated with different dose of C86 every day. Tumor volume was measured every 2-3 days. […] Two independent experiments were performed with at least three replicates per experimental group. Unpaired t test, two-tailed. FIG. 26D: Body weight measured every 3-5 days for the experiment outlined in FIG. 26C. FIG. 26E: Parental Huh7 or RALDH1-KO Huh7 cells were implanted subcutaneously into NU/J mice and treated with C86 (i.p, 10 mg/kg) or vehicle (control) every day. […] Three or more independent experiments were performed with at least three replicates per experimental group. Unpaired t test, two-tailed. FIG. 26F: Huh7 tumor-bearing NU/J mice were treated with clodronate liposomes (CloLipo) and/or C86. […] Two independent experiments were performed with at least three replicates per experimental group. Unpaired t test, two-tailed. FIG. 26G: Murine Hepa 1-6 tumors were implanted subcutaneously into C57BL6/J WT mice or LyMCre:RosadnRAR mice. Expression of the dominant negative RAR in myeloid cells slows tumor growth. Two independent experiments were performed with at least three replicates per experimental group. Unpaired t test, two-tailed. FIG. 26H: Huh7 cells were implanted subcutaneously into NU/J mice. When tumor size reached about 50 mm^3, mice were intraperitoneally injected vehicle (control) or C86 daily with or without BMS493 treatment intratumorally every 3 days. BMS493 and C86 suppress tumor growth with the combination showing higher suppression than monotherapy. *, P<0.05; **, P<0.01; ***, P<0.001; n.s., not significant.
Cultured Huh7, Huh1, Hepa 1-6, Hep55, and FS (as indicated in figure legends) tumor cells were detached using 0.25% trypsin (Gibco, catalog #25200056), washed once with 1×PBS, and counted before implantation. 3~6×10^6 tumor cells were implanted subcutaneously (s.c.) into shaved flanks of recipient mice. Tumor dimensions were measured using a caliper starting at the day indicated in the accompanying figure legend and every two to three days thereafter; volume was calculated by using formula Length*Width^2/2. Tumor volumes of 2,000 mm^3, tumor length of 2 cm or tumor ulceration were used as endpoints for survival analyses.
Compound-86, 97 and 99 powder was dissolved in 20% HPβCD saline (2-Hydroxypropyl)-[…]). Drug was administered i.p. or p.o. starting when tumor volume reached 50-150 mm^3 and repeated every day.

[1] = Chow PK of C86, 15-day study in CD-1 mice; format: in vivo, mouse; conditions: 15-day period
Description: FIG. 31A: Completed blood count (CBC) was performed at IDEXX on whole blood collected from indicated RALDH1 genotypes (X-axis). One experiment with four replicates per experimental group. One-way ANOVA. *p<0.05, **p<0.01, ***p<0.001. FIG. 31B: Weights of mice of the indicated RALDH1 genotypes. Siblings were used for all genotypes to control for confounding factors. One experiment with four replicates per experimental group. One-way ANOVA. *p<0.05, **p<0.01, ***p<0.001. […] Diet (or PO) #A, B, and C (shown in the inbox of individual graphs) corresponds to drug dose of 10, 30, and 60 mg/kg respectively. Mice had free access to food and water during the 15-day study.
The PK studies were done at NIH or a commercial CRO—Pharmacon using their in-house standard protocol. […] For C99, IV and PO, performed at NIH using CD-1 mice; formulation: 20% HPbCD in saline.

Cyclooxygenase COX-2 = biological target: T1, Cyclooxygenase COX-2 (Homo sapiens, UniProt P35354); experiment: Safetyscreen: COX-2; format: biochemical; conditions: read-out: % Inh. Cyclooxygenase COX-2
T1 construct: Eurofins Cerep Panlabs (contract panel)

Adrenergic α1B = biological target: T2, Adrenergic α1B (Rattus norvegicus, UniProt P15823); experiment: Safetyscreen: Adrenergic α1B; format: binding; conditions: read-out: % Inh. Adrenergic α1B
T2 construct: Eurofins Cerep Panlabs (contract panel)

Bradykinin B2 = biological target: T3, Bradykinin B2 (Homo sapiens, UniProt P30411); experiment: Safetyscreen: Bradykinin B2; format: binding; conditions: read-out: % Inh. Bradykinin B2
T3 construct: purchased Eurofins Cereps Panlabs

Glucocorticoid = biological target: T4, Glucocorticoid (Homo sapiens, UniProt P04150); experiment: Safetyscreen: Glucocorticoid; format: binding; conditions: read-out: % Inh. Glucocorticoid
T4 construct: purchased Eurofins Cereps Panlabs

Glutamate, AMPA = experiment: Safetyscreen: Glutamate, AMPA; format: binding, rat; conditions: 10 μM
Histamine H1 = biological target: T5, Histamine H1 (Homo sapiens, UniProt P35367); experiment: Safetyscreen: Histamine H1; format: binding; conditions: read-out: % Inh. Histamine H1
T5 construct: purchased Eurofins Cereps Panlabs

Melanocortin MC4 = biological target: T6, Melanocortin MC4 (Homo sapiens, UniProt P32245); experiment: Safetyscreen: MC4; format: binding; conditions: read-out: % Inh. Melanocortin MC4
T6 construct: Eurofins Cereps Panlabs (contract panel)

Muscarinic M4 = biological target: T7, Muscarinic M4 (Homo sapiens, UniProt P08173); experiment: Safetyscreen: Muscarinic M4; format: binding; conditions: read-out: % Inh. Muscarinic M4
T7 construct: Eurofins Cereps Panlabs (contract panel)

Opiate κ(OP2, KOP) = biological target: T8, Opiate κ(OP2, KOP) (Homo sapiens, UniProt P41145); experiment: Safetyscreen: Opiate κ; format: binding; conditions: read-out: % Inh. Opiate κ(OP2, KOP)
T8 construct: Eurofins Cereps Panlabs (contract panel)

[2] = biological target: T9, Platelet Activating Factor (PAF) (Homo sapiens, UniProt P25105); experiment: Safetyscreen: PAF; format: binding; conditions: read-out: % Inh. Platelet Activating Factor (PAF)
T9 construct: Eurofins Cereps Panlabs (contract panel)

Progesterone PR-B = biological target: T10, Progesterone PR-B (Homo sapiens, UniProt P06401); experiment: Safetyscreen: Progesterone PR-B; format: binding; conditions: read-out: % Inh. Progesterone PR-B
T10 construct: Eurofins Cereps Panlabs (contract panel)

[3] = Huh7 tumor-bearing nude mice, once daily dosing

T5 sequence (P35367 whole entry): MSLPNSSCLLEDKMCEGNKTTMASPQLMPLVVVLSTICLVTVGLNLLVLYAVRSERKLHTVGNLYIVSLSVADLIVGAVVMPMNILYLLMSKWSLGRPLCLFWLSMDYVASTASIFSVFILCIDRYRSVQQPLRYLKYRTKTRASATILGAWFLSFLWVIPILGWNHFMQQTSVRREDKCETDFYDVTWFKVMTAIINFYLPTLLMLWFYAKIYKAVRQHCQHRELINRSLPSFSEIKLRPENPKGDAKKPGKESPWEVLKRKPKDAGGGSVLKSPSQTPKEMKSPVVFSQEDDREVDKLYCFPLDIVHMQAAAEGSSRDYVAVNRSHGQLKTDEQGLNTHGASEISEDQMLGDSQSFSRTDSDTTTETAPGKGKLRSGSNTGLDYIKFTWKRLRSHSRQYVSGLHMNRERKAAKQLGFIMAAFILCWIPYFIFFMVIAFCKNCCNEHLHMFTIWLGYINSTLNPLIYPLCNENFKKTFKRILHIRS
T2 sequence (P15823 whole entry): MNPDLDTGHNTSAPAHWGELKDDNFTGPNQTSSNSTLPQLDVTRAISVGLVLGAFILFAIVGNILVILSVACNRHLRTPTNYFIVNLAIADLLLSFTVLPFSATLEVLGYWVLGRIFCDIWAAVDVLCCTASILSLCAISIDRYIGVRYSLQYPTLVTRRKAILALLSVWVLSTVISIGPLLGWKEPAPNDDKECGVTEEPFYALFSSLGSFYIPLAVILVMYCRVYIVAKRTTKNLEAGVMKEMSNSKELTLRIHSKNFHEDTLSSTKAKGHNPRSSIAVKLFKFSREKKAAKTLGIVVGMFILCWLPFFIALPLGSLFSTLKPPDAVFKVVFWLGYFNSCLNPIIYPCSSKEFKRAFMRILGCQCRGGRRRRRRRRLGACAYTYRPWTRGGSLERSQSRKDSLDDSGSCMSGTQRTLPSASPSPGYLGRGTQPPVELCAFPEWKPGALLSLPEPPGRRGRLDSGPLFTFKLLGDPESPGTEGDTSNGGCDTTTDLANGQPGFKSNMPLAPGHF
T7 sequence (P08173 whole entry): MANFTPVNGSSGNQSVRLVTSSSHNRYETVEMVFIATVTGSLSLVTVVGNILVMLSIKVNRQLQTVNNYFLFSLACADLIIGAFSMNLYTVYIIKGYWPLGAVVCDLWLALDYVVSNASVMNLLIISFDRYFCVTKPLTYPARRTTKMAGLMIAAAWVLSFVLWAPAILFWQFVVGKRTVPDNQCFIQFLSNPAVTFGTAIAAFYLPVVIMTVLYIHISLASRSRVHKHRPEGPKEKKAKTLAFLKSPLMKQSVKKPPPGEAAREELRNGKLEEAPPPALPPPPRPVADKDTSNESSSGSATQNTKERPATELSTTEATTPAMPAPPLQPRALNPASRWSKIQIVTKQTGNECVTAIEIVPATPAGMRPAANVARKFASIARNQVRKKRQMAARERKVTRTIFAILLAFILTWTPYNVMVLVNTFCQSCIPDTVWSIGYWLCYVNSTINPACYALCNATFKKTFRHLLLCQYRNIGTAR
T1 sequence (P35354 18-604): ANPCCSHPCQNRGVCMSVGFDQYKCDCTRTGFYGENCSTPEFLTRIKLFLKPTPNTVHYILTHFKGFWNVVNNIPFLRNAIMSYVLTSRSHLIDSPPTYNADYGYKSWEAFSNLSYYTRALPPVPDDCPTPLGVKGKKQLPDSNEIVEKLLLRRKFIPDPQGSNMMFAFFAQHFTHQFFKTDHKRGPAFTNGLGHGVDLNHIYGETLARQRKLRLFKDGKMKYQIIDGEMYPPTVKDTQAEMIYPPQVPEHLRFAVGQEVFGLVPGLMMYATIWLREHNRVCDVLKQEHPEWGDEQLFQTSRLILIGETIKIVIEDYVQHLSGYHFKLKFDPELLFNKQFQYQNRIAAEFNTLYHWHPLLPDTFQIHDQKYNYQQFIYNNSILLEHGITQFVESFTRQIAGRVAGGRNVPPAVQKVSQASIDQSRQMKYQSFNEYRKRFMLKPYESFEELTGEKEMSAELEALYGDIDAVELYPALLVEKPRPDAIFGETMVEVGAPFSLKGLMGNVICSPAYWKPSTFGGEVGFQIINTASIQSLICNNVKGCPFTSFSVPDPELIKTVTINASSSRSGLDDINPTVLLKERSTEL
T10 sequence (P06401 whole entry): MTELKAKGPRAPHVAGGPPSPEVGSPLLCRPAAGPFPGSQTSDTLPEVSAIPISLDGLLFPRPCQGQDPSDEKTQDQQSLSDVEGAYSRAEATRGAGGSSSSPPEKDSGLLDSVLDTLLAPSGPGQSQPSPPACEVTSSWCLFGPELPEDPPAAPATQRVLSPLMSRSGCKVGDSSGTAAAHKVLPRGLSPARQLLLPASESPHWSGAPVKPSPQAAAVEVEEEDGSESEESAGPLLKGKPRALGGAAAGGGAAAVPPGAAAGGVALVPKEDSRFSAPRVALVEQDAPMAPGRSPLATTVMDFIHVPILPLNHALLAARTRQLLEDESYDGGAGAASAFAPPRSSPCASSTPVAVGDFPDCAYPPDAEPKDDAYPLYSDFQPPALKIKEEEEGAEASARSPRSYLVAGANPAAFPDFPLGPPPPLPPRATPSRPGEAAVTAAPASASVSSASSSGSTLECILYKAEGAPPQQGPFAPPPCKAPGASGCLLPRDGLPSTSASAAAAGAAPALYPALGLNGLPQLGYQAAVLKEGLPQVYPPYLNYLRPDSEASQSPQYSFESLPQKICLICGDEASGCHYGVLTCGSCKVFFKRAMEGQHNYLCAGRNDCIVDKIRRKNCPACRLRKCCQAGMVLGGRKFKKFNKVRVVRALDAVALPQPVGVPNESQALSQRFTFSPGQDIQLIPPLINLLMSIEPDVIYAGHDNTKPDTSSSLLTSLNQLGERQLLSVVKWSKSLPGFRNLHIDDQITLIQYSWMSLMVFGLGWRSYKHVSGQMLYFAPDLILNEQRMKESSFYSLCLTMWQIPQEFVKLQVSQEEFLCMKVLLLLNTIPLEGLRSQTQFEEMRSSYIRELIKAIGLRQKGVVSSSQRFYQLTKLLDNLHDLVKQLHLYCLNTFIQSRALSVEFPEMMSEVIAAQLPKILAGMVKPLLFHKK
T6 sequence (P32245 whole entry): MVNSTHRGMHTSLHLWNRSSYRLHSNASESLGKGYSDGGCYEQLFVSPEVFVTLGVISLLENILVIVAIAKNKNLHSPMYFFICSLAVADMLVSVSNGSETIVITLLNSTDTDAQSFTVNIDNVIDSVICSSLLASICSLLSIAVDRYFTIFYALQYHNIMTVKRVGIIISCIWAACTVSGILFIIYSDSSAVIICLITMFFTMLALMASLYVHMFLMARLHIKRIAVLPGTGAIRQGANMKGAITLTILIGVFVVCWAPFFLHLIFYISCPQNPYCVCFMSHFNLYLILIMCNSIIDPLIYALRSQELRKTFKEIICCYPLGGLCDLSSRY
T3 sequence (P30411 whole entry): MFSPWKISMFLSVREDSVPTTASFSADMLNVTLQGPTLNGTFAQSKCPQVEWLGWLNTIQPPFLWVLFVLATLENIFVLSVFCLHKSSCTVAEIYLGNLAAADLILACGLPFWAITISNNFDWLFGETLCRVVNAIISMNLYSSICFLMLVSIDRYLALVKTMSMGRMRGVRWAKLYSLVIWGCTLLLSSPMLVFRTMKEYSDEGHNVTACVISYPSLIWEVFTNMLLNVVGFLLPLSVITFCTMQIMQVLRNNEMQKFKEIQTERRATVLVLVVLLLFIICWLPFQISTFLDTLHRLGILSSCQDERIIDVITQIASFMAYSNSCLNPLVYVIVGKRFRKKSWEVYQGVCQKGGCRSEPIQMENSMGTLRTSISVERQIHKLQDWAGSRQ
T8 sequence (P41145 whole entry): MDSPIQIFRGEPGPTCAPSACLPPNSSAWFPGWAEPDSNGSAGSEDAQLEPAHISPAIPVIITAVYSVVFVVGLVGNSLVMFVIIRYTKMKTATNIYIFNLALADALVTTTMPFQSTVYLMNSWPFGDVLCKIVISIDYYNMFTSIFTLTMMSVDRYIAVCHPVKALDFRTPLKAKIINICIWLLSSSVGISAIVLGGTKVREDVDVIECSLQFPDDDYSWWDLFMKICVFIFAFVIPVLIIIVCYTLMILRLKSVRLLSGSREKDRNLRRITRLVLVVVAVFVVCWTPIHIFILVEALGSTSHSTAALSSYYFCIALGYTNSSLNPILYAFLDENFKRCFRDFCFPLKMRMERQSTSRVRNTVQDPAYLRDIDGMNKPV
T4 sequence (P04150 whole entry): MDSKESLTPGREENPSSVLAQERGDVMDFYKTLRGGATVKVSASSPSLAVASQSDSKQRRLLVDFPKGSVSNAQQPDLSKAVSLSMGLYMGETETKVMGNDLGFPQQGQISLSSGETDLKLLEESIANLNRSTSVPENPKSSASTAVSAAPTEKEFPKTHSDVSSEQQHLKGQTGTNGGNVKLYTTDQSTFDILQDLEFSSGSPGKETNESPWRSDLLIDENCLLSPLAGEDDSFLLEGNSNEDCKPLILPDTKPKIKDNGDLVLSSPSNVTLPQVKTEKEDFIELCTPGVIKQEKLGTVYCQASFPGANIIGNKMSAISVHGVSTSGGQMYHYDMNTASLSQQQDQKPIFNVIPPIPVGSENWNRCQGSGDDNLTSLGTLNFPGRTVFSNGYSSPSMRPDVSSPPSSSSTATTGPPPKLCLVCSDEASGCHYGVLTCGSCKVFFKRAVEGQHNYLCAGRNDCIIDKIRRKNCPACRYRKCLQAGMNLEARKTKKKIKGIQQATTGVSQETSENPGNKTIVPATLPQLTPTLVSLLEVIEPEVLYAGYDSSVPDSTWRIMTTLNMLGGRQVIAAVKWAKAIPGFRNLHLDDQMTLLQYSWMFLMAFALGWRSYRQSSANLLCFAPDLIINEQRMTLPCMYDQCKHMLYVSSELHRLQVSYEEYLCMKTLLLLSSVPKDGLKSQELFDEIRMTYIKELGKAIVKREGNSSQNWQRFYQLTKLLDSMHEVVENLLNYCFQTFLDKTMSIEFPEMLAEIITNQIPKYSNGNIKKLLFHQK

CS(=O)(=O)N1CCN(C(=O)c2cnc3ccc(F)cc3c2N2CCC(C#N)(c3ccccc3)CC2)CC1 [Compound C-86, 1-(6-fluoro-3-(4-(methylsulfonyl)piperazine-1-carbonyl)quinolin-4-yl)-4-phenylpiperidine-4-carbonitrile]
tumor mass and volume (Huh7 tumors; Huh7, C-86 versus C-97 (FIGS. 17A-17B)): significant reduction in tumor mass and volume
dose dependence of effect on tumor volume and tumor mass (Huh7 tumors; Huh7, FIGS. 13A-13B): dose-dependent effect
tumor suppression in the absence of TAMs (Huh7 tumors; Huh7, TAM depletion with CloLipo): did not further suppress tumors
tumor mass and volume (Huh7 tumors; Huh7, intraperitoneal administration, compared to a control (FIGS. 12B-12C)): significant reduction in tumor mass and volume
tumor mass (Huh7 tumors; Huh7, macrophage depletion study (FIG. 14B)): significant reduction in tumor mass
dose at which weight loss was observed (Huh7 tumors; [3]): 40 mg/kg
dose with tumor suppressive effects (Huh7 tumors; [3]): > 10 mg/kg
RALDH activity in tumor cells (AldeRed at endpoint) (Huh7 tumors; Huh7 tumors, CD45− cells): reduced RADLH activity
response of RALDH1-KO HCC tumors to therapy (Huh7 tumors; RALDH1-KO Huh7, i.p, 10 mg/kg every day): did not respond
tumor inhibition (Huh7 tumors; huh7 in immunodeficient mice, i.p, 10 mg/kg every day): significant tumor inhibition
drug exposure over time ([1]; chow, 10, 30 and 60 mg/kg): consistent drug exposure over time
body weight ([1]; chow): without affecting body weight
inhibition at 10 µM (Cyclooxygenase COX-2): 0%
inhibition at 10 µM (Adrenergic α1B): 6%
inhibition at 10 µM (Bradykinin B2): 2%
inhibition at 10 µM (Glucocorticoid): 9%
% Inh. Glutamate, AMPA (Glutamate, AMPA): 0%
inhibition at 10 µM (Histamine H1): 13%
inhibition at 10 µM (Melanocortin MC4): 13%
inhibition at 10 µM (Muscarinic M4): 13%
inhibition at 10 µM (Opiate κ(OP2, KOP)): 41%
inhibition at 10 µM [2]: 32%
inhibition at 10 µM (Progesterone PR-B): 1%
